Experimental data: paper PMC12406192, “Sustainable Joullié–Ugi and Continuous Flow Implementation Led to Novel Captopril-Inspired Broad-Spectrum Metallo-β-Lactamase Inhibitors” (Journal of Medicinal Chemistry, 2025)

Columns and labels:
IMP-1 = target: T1, IMP-1 (Serratia marcescens, UniProt P52699); experiment: biochemical; settings: read-out: percentage of inhibition IMP-1
T1 construct: made in house; host or cells: E. coli
Method: (§1) IC50 values were determined in a kinetic fluorescence-based in vitro assay as described previously. All compounds were preincubated with the recombinant protein for 30 min before addition of the fluorogenic substrate fluorocillin. , The inhibitory activity was also determined (expressed as the percentage of inhibition in the presence of 50 μM compound) using a spectrophotometric assay in which the hydrolysis of imipenem (the reporter substrate) was monitored (see Section for details).
(§2) The inhibitory activity of the compounds was determined using enzyme assays with recombinant NDM-1, VIM-1, VIM-2, IMP-1, and IMP-7. These enzymes were produced in E. coli and purified as previously described. , The fluorogenic substrate fluorocillin was synthesized according to the procedure described by Rukavishnikov et al. The assays were performed in 96-well format using black polystyrene plates (Corning, Corning, NY) at room temperature, and the measurements were carried out on the Tecan spectrophotometer Infinite F200 PRO (Tecan, Männedorf, Switzerland). The protein stock solutions were diluted in assay buffer (HEPES 50 mM, pH 7.5 containing 0.01%Triton X-100, buffer HX) to reach final concentrations of VIM-1–4 nM, IMP-7–0.1 nM; NDM-1–3 nM. Subsequently, 89 μL of the protein solution was mixed with 1 μL of the inhibitor diluted in DMSO (final DMSO concentration 1% at final assay volume of 100 μL) and incubated for 30 min. […] Negative controls were measured in the absence of enzyme (89 μL of assay buffer), whereas the positive controls were measured in the presence of enzyme and in the absence of inhibitors (1 μL of DMSO). Each measurement was performed in triplicate in three independent experiments. IC50 values were calculated using data obtained from measurements with at least eight different inhibitor concentrations, applying a sigmoidal dose–response (variable slope with four parameters) equation using GraphPad Prism 5 (GraphPad Software, La Jolla, CA) software. […] All assays were performed in at least in triplicate.

VIM-2 = target: T2, VIM-2 (Escherichia coli, UniProt Q5U7L7); experiment: biochemical; settings: read-out: percentage of inhibition VIM-2
T2 construct: made in house; host or cells: E. coli
Method: as §1, §2

[1] = test system: S. marcescens SI-1591 (bla VIM‑2 +); experiment: microbe, parasite or virus in culture; format: cell-based; settings: compound at 32 μg/mL; median of three experiments
Method: (§3) In vitro antimicrobial susceptibility testing was performed according to established standards. […] The strains used in the study were described elsewhere.

NDM-1 [2] = target: T3, NDM-1 (Klebsiella pneumoniae, UniProt C7C422); experiment: Kinetic fluorescence-based in vitro assay with fluorocillin substrate (IC50); format: biochemical; settings: 30 min preincubation
T3 construct: made in house; host or cells: E. coli
T3 sequence (C7C422 29-270 limits assumed): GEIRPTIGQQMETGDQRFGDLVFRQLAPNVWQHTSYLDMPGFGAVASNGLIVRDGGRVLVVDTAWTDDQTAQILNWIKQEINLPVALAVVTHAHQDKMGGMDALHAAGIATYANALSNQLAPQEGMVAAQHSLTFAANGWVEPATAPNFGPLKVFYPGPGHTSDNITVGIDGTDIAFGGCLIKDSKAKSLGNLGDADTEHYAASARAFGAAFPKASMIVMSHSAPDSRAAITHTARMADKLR
Method: as §1, §2

[3] = test system: E. coli SI-G001 (bla NDM‑4 +); format: cell-based; settings: compound at 32 μg/mL; median of three experiments
Method: as §3

[4] = test system: E. coli SI–N003 (bla NDM‑7 +); format: cell-based; settings: compound at 32 μg/mL; median of three experiments
Method: as §3

[5] = test system: K. pneumoniae 7023 (bla VIM‑1 +); experiment: Imipenem MIC, broth microdilution, with fixed concentration of compound; format: cell-based; settings: compound at 32 μg/mL; median of three experiments
Method: as §3

[6] = test system: K. pneumoniae VA-416/02 (bla VIM‑4 +); experiment: as above; format: cell-based; settings: compound at 32 μg/mL; median of three experiments
Method: as §3

[7] = test system: A. baumannii AC-54/97 (bla IMP‑2 +); experiment: as above; format: cell-based; settings: compound at 32 μg/mL; median of three experiments
Method: as §3

NDM-1 [8] = target: T3, NDM-1; experiment: Spectrophotometric direct competition assay, imipenem hydrolysis (reporter substrate); format: biochemical; settings: read-out: percentage of inhibition NDM-1
Method: as §1, §2

[9] = test system: E. coli SI-M001 (bla NDM‑1 +); experiment: Imipenem MIC, broth microdilution, with fixed concentration of compound; format: cell-based; settings: compound at 32 μg/mL; median of three experiments
Method: In vitro antimicrobial susceptibility testing was performed according to established standards. […]. The strains used in the study were described elsewhere.

T1 sequence (P52699 19-246, looked up, species assumed): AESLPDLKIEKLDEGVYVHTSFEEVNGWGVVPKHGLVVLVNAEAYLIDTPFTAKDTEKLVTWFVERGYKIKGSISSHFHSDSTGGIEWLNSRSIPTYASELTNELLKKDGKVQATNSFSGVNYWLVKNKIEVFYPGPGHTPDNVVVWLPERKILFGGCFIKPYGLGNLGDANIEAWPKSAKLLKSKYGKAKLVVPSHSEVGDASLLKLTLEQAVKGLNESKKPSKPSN

Row | Compound | inhibition at 50 µM (IMP-1) [%] | inhibition at 50 µM (VIM-2) [%] | imipenem MIC, S. marcescens SI-1591 (bla VIM‑2 +) [1] [µg/mL] | IC50 (NDM-1 [2]) [µM] | imipenem MIC, E. coli SI-G001 (bla NDM‑4 +) [3] [µg/mL] | imipenem MIC, E. coli SI–N003 (bla NDM‑7 +) [4] [µg/mL] | imipenem MIC, K. pneumoniae 7023 (bla VIM‑1 +) [5] [µg/mL] | imipenem MIC, K. pneumoniae VA-416/02 (bla VIM‑4 +) [6] [µg/mL] | imipenem MIC, A. baumannii AC-54/97 (bla IMP‑2 +) [7] [µg/mL] | inhibition at 50 µM (NDM-1 [8]) [%] | imipenem MIC, E. coli SI-M001 (bla NDM‑1 +) [9] [µg/mL]
1 | C[C@H](CS)C(=O)N1c2ccccc2C(C)(C)[C@H]1C(=O)NCC(=O)O [7a, ((S)-1-((S)-3-Mercapto-2-methylpropanoyl)-3,3-dimethylindoline-2-carbonyl)glycine] | ≤ 10 | 38 | 8 | 40 | 64 | 64 | 128 | 128 | 128 | 28 | 64
2 | CCC1(CC)c2ccccc2N(C(=O)[C@H](C)CS)[C@@H]1C(=O)NCC(=O)O [7c, ((S)-3,3-Diethyl-1-((S)-3-mercapto-2-methylpropanoyl)indoline-2-carbonyl)glycine] | 27 | 55 | 16 | 41 | 64 | 64 | 128 | 128 | 128 | 43 | 64
3 | CCC1(CC)c2ccccc2N(C(=O)[C@H](C)CS)[C@H]1C(=O)NCC(=O)O [7d, ((R)-3,3-Diethyl-1-((S)-3-mercapto-2-methylpropanoyl)indoline-2-carbonyl)glycine] | 17 | 69 | 16 | 10 | 64 | 64 | 128 | 128 | 128 | 67 | 64
4 | CCC1(CC)c2ccccc2N(C(=O)[C@H](C)CSC(C)=O)[C@H]1C(N)=O [(S,R′)-14b, ((S)-3-((R)-2-Carbamoyl-3,3-diethylindolin-1-yl)-2-methyl-3-oxopropyl)ethanethioate] | ≤ 10 | 15 | 8 |  | 64 | 64 | 64 | 128 | 128 | ≤ 10 | 32
5 | CC(=O)SC[C@@H](C)C(=O)N1c2ccccc2C2(CCCCC2)[C@H]1C(N)=O [(S,S′)-14c, ((S)-3-((S)-2′-Carbamoylspiro[cyclohexane-1,3′-indolin]-1′-yl)-2-methyl-3-oxopropyl)ethanethioate] | ≤ 10 | 17 | 8 |  | 32 | 32 | 64 | 128 | 128 | ≤ 10 | 16
6 | C[C@H](CS)C(=O)N1CCC[C@@H]1C(=O)O [D-captopril, reference compound] |  |  |  |  |  |  |  |  |  | 86 | 
7 | C[C@H](CS)C(=O)N1CCC[C@H]1C(=O)O [L-captopril, reference compound] |  |  |  |  |  |  |  |  |  | 76 | 
